biological target: T1, recombinant human CETP (Homo sapiens, UniProt P11597); test: CETP in vitro fluorometric assay (Roar Biomedical), cholesterol ester transfer from HDL to LDL; format: biochemical; details: recombinant human CETP from CHO cells; 3 hours at 37° C.; fluorescence ex 485 nm / em 535 nm; compound concentrations between 1 nM and 30 μM; read-out: IC50 values for inhibition of CETP
T1 construct: made in house; host or cells: CHO cells (protein secreted into conditioned medium)
T1 sequence (P11597 18-493): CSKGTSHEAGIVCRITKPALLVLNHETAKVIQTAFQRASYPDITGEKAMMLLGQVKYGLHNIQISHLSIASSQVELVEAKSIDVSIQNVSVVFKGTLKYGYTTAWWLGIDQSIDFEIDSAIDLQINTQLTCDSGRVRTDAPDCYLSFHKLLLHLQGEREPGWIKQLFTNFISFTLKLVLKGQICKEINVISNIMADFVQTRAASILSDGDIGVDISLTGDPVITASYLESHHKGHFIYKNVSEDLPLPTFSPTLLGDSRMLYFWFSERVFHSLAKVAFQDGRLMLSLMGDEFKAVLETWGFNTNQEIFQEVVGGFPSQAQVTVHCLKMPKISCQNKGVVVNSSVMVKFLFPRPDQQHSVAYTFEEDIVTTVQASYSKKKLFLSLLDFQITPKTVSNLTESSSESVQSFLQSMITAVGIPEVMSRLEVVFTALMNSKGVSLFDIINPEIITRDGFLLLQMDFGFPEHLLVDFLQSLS
Method: CETP inhibitory activity of compounds of the present invention can be determined in a fluorometric assay puchased from Roar Biomedical, Inc. (New York, N.Y., USA). […] Recombinant human CETP was partially purified from medium conditioned by CETP expressing CHO cells. In a 384 well format 2.5 μl of compound solution in DMSO was combined with 2 μl of donor solution, 2 μl of acceptor solution and 0.8 μl of recombinant human CETP solution in a total volume of 100 μl with assay buffer and incubated for 3 hours at 37° C. The fluorescence intensity was measured at excitation wavelength of 485 nm and emission wavelength of 535 nm. IC50 values are calculated from dose effect curves from compound concentrations between 1 nM and 30 μM.

Row | IC50 [µM] | Structure (SMILES)
1 | 0.047 | CC(C)c1nc2c(c3c1[C@@H](c1ccc(C(C)(C)C#N)cc1)OC31CCCC1)[C@@H](O)CC(C)(C)C2 [1(22), 2-(4-((3′R,9′S)-9′-hydroxy-4′-isopropyl-7′,7′-dimethyl-6′,7′,8′,9′-tetrahydro-3′H-spiro[cyclopentane-1,1′-furo[3,4-c]quinoline]-3′-yl)phenyl)-2-methylpropanenitrile]
2 | 0.037 | CC1(C)Cc2nc(C3CCCC3)c3c(c2[C@@H](O)C1)C1(CCCC1)O[C@@H]3c1ccc(C(F)(F)F)cc1 [1(6), (3′R,9′S)-4′-cyclopentyl-7′,7′-dimethyl-3′-(4-(trifluoromethyl)phenyl)-6′,7′,8′,9′-tetrahydro-3′H-spiro[cyclopentane-1,1′-furo[3,4-c]quinolin]-9′-ol]
3 | 0.418 | CCc1nc2c(c3c1[C@@H](c1ccc(C(F)(F)F)cc1)OC31CCCC1)[C@@H](O)CC(C)(C)C2 [1(37), (3′R,9′S)-4′-ethyl-7′,7′-dimethyl-3′-(4-(trifluoromethyl)phenyl)-6′,7′,8′,9′-tetrahydro-3′H-spiro[cyclopentane-1,1′-furo[3,4-c]quinolin]-9′-ol]
4 | 0.051 | CC1(C)Cc2nc(C3CCC3)c3c(c2[C@@H](O)C1)C1(CCCC1)O[C@@H]3c1ccc(C(F)(F)F)cc1 [1(28), (3′R,9′S)-4′-cyclobutyl-7′,7′-dimethyl-3′-(4-(trifluoromethyl)phenyl)-6′,7′,8′,9′-tetrahydro-3′H-spiro[cyclopentane-1,1′-furo[3,4-c]quinolin]-9′-ol]
5 | 0.037 | CC(C)c1nc2c(c3c1[C@@H](c1ccc(C4(C)CC4)cc1)OC31CCCC1)[C@@H](O)CC(C)(C)C2 [1(40), (3′R,9′S)-4′-isopropyl-7′,7′-dimethyl-3′-(4-(1-methylcyclopropyl)phenyl)-6′,7′,8′,9′-tetrahydro-3′H-spiro[cyclopentane-1,1′-furo[3,4-c]quinolin]-9′-ol]
6 | 0.056 | CC1(C)Cc2nc(C3CCOCC3)c3c(c2[C@@H](O)C1)C1(CCOCC1)O[C@@H]3c1ccc(C(F)(F)F)cc1 [1(39), (3R,9S)-7,7-dimethyl-4-(tetrahydro-2H-pyran-4-yl)-3-(4-(trifluoromethyl)phenyl)-2′,3′,5′,6,6′,7,8,9-octahydro-3H-spiro[furo[3,4-c]quinoline-1,4′-pyran]-9-ol]
7 | 0.524 | CC(C)c1nc2c(c3c1[C@@H](c1cccc(C(F)(F)F)c1)OC31CCCC1)[C@@H](O)CC(C)(C)C2 [1(41), (3′R,9′S)-4′-isopropyl-7′,7′-dimethyl-3′-(3-(trifluoromethyl)phenyl)-6′,7′,8′,9′-tetrahydro-3′H-spiro[cyclopentane-1,1′-furo[3,4-c]quinolin]-9′-ol]
8 | 0.351 | CC1(C)Cc2nc(C3CCCC3)c3c(c2[C@@H](O)C1)C(C)(C)O[C@@H]3c1ccc(C(C)(C)C)cc1 [1(19), (3R,9S)-3-(4-tert-butylphenyl)-4-cyclopentyl-1,1,7,7-tetramethyl-1,3,6,7,8,9-hexahydrofuro[3,4-c]quinolin-9-ol]

Row | Structure (SMILES) | IC50 [µM]
9 | CC(C)c1nc2c(c3c1[C@@H](c1ccc(Cl)cc1)OC31CCCC1)[C@@H](O)CC(C)(C)C2 [1(9), (3′R,9′S)-3′-(4-chlorophenyl)-4′-isopropyl-7′,7′-dimethyl-6′,7′,8′,9′-tetrahydro-3′H-spiro[cyclopentane-1,1′-furo[3,4-c]quinolin]-9′-ol] | 0.148
10 | CC(C)c1nc2c(c3c1[C@@H](c1ccc(C(F)(F)F)cc1)OC3(C)C)[C@@H](O)CC(C)(C)C2 [1(3), (3R,9S)-4-isopropyl-1,1,7,7-tetramethyl-3-(4-(trifluoromethyl)phenyl)-1,3,6,7,8,9-hexahydrofuro[3,4-c]quinolin-9-ol] | 0.46
11 | CC(C)c1nc2c(c3c1[C@@H](c1ccc(C(C)(C)C)cc1)OC31CCCC1)[C@@H](O)CC(C)(C)C2 [1(11), (3′R,9′S)-3′-(4-tert-butylphenyl)-4′-isopropyl-7′,7′-dimethyl-6′,7′,8′,9′-tetrahydro-3′H-spiro[cyclopentane-1,1′-furo[3,4-c]quinolin]-9′-ol] | 0.036
12 | CC1(C)Cc2nc(C3CCCC3)c3c(c2[C@@H](O)C1)C1(CCCC1)O[C@@H]3c1ccc(F)cc1 [1(10), (3′R,9′S)-4′-cyclopentyl-3′-(4-fluorophenyl)-7′,7′-dimethyl-6′,7′,8′,9′-tetrahydro-3′H-spiro[cyclopentane-1,1′-furo[3,4-c]quinolin]-9′-ol] | 0.36
13 | CC(C)c1nc2c(c3c1[C@@H](c1ccc(C(F)(F)F)c(F)c1)OC31CCCC1)[C@@H](O)CC(C)(C)C2 [1(16), (3′R,9′S)-3′-(3-fluoro-4-(trifluoromethyl)phenyl)-4′-isopropyl-7′,7′-dimethyl-6′,7′,8′,9′-tetrahydro-3′H-spiro[cyclopentane-1,1′-furo[3,4-c]quinolin]-9′-ol] | 0.043
14 | CC(C)c1nc2c(c3c1[C@@H](c1ccc(C(F)(F)F)cc1)OC31CCCC1)[C@@H](O)CC1(CCC1)C2 [1(15), (3′R,9′S)-4′-isopropyl-7′,7′-(propan-1,3-diyl)-3′-(4-(trifluoromethyl)phenyl)-6′,7′,8′,9′-tetrahydro-3′H-spiro[cyclopentane-1,1′-furo[3,4-c]quinolin]-9′-ol] | 0.021
